Activity calls are given as the source filed them. No cut-off for these calls is given here.
Tests used:
[1] = tested on: Rattus norvegicus; test: Evaluation of decrease in heart rate (antihypertensive activity) in spontaneously hypertensive rats after 3-6h 0f peroral dose of 100 mg /kg; type: functional
[2] = tested on: Canis familiaris; test: Evaluation of antihypertensive activity renally hypertensive dog at dose 10,30,100mg/kg(po); Inactive; type: functional, organism-based; conditions: Canis lupus familiaris
[3] = tested on: Rattus norvegicus; test: Evaluation of antihypertensive activity in DOCA/salt hypertensive rats at peroral dose of 10,30,100 mg /kg; value ranges from 12-20%; type: functional
[4] = tested on: Rattus norvegicus; test: Evaluation of antihypertensive activity in DOCA/salt hypertensive rats at peroral dose of 10 mg/kg; no effect on HR; Inactive; type: functional, organism-based; parameters: dose 10 mg/kg
[5] = tested on: Canis familiaris; test: Evaluation of antihypertensive activity renally hypertensive dog at dose 10 mg/kg; type: functional, Canis lupus familiaris
[6] = tested on: Rattus norvegicus; test: Evaluation of antihypertensive activity in spontaneously hypertensive rats at peroral dose of 10, 30,100 mg /kg; type: functional

Compound: NCC/N=C(\S)Nc1c(Cl)cccc1Cl
- Reduction in heart rate [1]: 12.7%
- Reduction in arterial blood pressure [2]: inactive
- Decrease in blood pressure [3]: 12%
- Reduction in arterial blood pressure [4]: inactive
- Reduction in arterial blood pressure [5]: 7%
- Reduction in blood pressure [6]: 12.7%

— ChEMBL document CHEMBL1121376, “Antihypertensive (2-aminoethyl)thiourea derivatives. 2” (1980)
